Test results from patent US20260109694A1, “HETEROCYCLIC COMPOUNDS AND USES THEREOF” (Kumquat Biosciences Inc., priority 2023, published 2026).
pIC50: −log10 of the molar value.

Tests used:
PTP1B = biological target: T1, PTP1B (Homo sapiens, UniProt P18031); assay: Phosphatase activity assay (DiFMUP substrate); format: biochemical; details: value bin printed in column head
T1 sequence (P18031 1-435): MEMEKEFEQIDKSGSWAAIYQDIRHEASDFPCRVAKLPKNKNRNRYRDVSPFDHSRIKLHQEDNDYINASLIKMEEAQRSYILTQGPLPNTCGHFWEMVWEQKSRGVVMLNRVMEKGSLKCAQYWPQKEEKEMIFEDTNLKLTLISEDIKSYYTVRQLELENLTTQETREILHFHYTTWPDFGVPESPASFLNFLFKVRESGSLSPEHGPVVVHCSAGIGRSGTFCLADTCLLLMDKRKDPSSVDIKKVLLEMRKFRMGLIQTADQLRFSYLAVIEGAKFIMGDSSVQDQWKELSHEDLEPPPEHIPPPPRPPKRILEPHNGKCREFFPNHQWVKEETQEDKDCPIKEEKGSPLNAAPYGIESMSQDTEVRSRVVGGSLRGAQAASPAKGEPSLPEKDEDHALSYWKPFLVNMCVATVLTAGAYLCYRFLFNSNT
Description: (§1) The selectivity and potency of a small molecule PTPN2 inhibitor as provided herein against one or more protein tyrosine phosphatase (PTP) enzymes, and specifically against PTPN2, is assessed in various ways. The one or more PTP enzymes comprise Mycobacterium protein tyrosine phosphatase A (mPTPA), Mycobacterium protein tyrosine phosphatase B (mPTPB), PTPN1 (i.e., PTP1B), PTPN2 (i.e., TC-PTP), PTPN22 (i.e., LYP), SHP-1, SHP-2, FAP-1, Meg2, HePTP, Laforin, VHX, VHR, LMWPTP, Cdc14A, LAR, CD45, PTPRG, a fragment thereof, a variant thereof, and a combination thereof. Selectivity and potency of a small molecule PTPN2 inhibitor is evaluated using a PTP activity inhibition assay. The assay is performed using a buffer comprising 50 mM HEPES buffer pH 7.5, 150 mM NaCl, 0.5 mM EDTA, 1 mM DTT, 0.001% Tween-20.
(§2) The assay is performed using a phosphated substrate, e.g., 10 mM 6,8-Difluoro-4-Methylumbelliferyl Phosphate (DIFMUP) that is stored at −20° C. Alternatively or in addition to, the assay is performed using other phosphated substrate (e.g., fluorescein diphosphate). Each PTP enzyme is diluted in the assay buffer
(§3) The assay can be carried out at room temperature in multiplate format, e.g., using 384 well plates. A small molecule PTPN2 inhibitor dissolved in DMSO at one of 10 concentrations from a serial dilution or DMSO alone for control is added to each well. A mixture of the assay buffer comprising PTP enzyme (e.g., 0.025 ng/ul PTPN2) is added to each well and mixed for approximately 2 minutes. The reaction is initiated by adding DiFMUP diluted in the assay buffer to a final concentration of approximately 45 µM DiFMUP in PTPN2 assay. For each PTP enzyme, DiFMUP is added at the Km (Michaelis constant) of the enzyme that had been independently determined. The phosphatase activity of the PTP enzyme is assessed by monitoring appearance of a fluorescent product (6,8-difluoro-7-hydroxyl-4-coumarin (DiFMU) from DiFMUP) continuously for about 15 to 30 minutes, using the INFINITE M1000Pro plate reader (Tecan) with excitation at 360 nm and emission at 450 nm (cutoff filter at 435 nm) for DiFMU. Each assay is performed at least in duplicate. The rate (e.g., the initial rate) of DiFMU formation is plotted against the concentration of the small molecule PTPN2 inhibitor, and the data is fitted (e.g., using a 4-parameter equation) to determine the inflection point of the fit as the IC50 of the small molecule PTPN2 inhibitor for a specific enzyme. Utilizing this assay, the ability of the compounds in Table 1 to inhibit PTPN2 and PTP1B has been assessed. Table 3 summarizes the IC50 values.

PTPN2 = biological target: T2, PTPN2 (Homo sapiens, UniProt P17706); assay: Phosphatase activity assay (DiFMUP substrate); format: biochemical; details: value bin printed in column head
T2 sequence (P17706 1-415): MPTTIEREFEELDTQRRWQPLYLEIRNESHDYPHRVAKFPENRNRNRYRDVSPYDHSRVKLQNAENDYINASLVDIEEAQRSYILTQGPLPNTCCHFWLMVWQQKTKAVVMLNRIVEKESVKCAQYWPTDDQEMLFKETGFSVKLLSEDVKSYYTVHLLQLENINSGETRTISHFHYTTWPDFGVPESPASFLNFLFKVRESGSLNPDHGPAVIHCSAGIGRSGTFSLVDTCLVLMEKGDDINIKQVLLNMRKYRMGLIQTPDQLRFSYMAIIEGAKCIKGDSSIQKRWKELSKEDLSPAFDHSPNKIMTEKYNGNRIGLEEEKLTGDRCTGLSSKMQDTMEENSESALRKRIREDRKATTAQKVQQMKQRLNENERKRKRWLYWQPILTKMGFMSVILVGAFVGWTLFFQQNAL
Description: as §1, §2, §3

pIC50 (PTP1B) | pIC50 (PTPN2) | Structure (SMILES)
≥ 6.00 | ≥ 6.00 | CC(C)C(=O)O[C@@H](C)OC(=O)N1CC(c2ccc(O)c(N3CC(=O)NS3(=O)=O)c2F)=C[C@H]1CCC1CC1 [Compound 143, (R)-1-(isobutyryloxy)ethyl (R)-2-(2-cyclopropylethyl)-4-(3-(1,1-dioxido-4-oxo-1,2,5-thiadiazolidin-2-yl)-2-fluoro-4-hydroxyphenyl)-2,5-dihydro-1H-pyrrole-1-carboxylate]
≥ 6.00 | ≥ 6.00 | CC(C)[C@H](N)C(=O)NCC(=O)N1CC(c2ccc(O)c(N3CC(=O)NS3(=O)=O)c2F)=C[C@H]1CCC1CCC1 [Compound 144, (S)-2-amino-N-(2-((R)-2-(2-cyclobutylethyl)-4-(3-(1,1-dioxido-4-oxo-1,2,5-thiadiazolidin-2-yl)-2-fluoro-4-hydroxyphenyl)-2,5-dihydro-1H-pyrrol-1-yl)-2-oxoethyl)-3-methylbutanamide]
≥ 6.00 | ≥ 6.00 | CC(C)CC[C@H]1C=C(c2ccc(O)c(N3CC(=O)NS3(=O)=O)c2F)CN1 [Compound 145, (S)-5-(2-fluoro-6-hydroxy-3-(5-isopentyl-2,5-dihydro-1H-pyrrol-3-yl)phenyl)-1,2,5-thiadiazolidin-3-one 1,1-dioxide]
≥ 6.00 | ≥ 6.00 | CC(C)CC[C@H]1C=C(c2ccc(O)c(N3CC(=O)NS3(=O)=O)c2F)CN1C(=O)OC(OC(=O)[C@H](N)C(C)C)C(C)C (stereo partly drawn) [Compound 146, 1-((D-valyl)oxy)-2-methylpropyl (2S)-4-(3-(1,1-dioxido-4-oxo-1,2,5-thiadiazolidin-2-yl)-2-fluoro-4-hydroxyphenyl)-2-isopentyl-2,5-dihydro-1H-pyrrole-1-carboxylate]
≥ 6.00 | ≥ 6.00 | CC(OC(=O)[C@H](N)C(C)C)OC(=O)N1CC(c2ccc(O)c(N3CC(=O)NS3(=O)=O)c2F)=C[C@H]1CCC1CCC1 (stereo partly drawn) [Compound 147, 1-((D-valyl)oxy)ethyl (2R)-2-(2-cyclobutylethyl)-4-(3-(1,1-dioxido-4-oxo-1,2,5-thiadiazolidin-2-yl)-2-fluoro-4-hydroxyphenyl)-2,5-dihydro-1H-pyrrole-1-carboxylate]
≥ 6.00 | ≥ 6.00 | CC(C)CC[C@H]1C=C(c2ccc(O)c(N3CC(=O)NS3(=O)=O)c2F)CN1C(=O)O[C@H](C)OC(=O)C(C)C [Compound 148, (R)-1-(isobutyryloxy)ethyl (S)-4-(3-(1,1-dioxido-4-oxo-1,2,5-thiadiazolidin-2-yl)-2-fluoro-4-hydroxyphenyl)-2-isopentyl-2,5-dihydro-1H-pyrrole-1-carboxylate]
≥ 6.00 | ≥ 6.00 | CC(C)[C@@H](N)C(=O)NCC(=O)N1CC(c2ccc(O)c(N3CC(=O)NS3(=O)=O)c2F)=C[C@H]1CCC1CCC1 [Compound 149, (R)-2-amino-N-(2-((R)-2-(2-cyclobutylethyl)-4-(3-(1,1-dioxido-4-oxo-1,2,5-thiadiazolidin-2-yl)-2-fluoro-4-hydroxyphenyl)-2,5-dihydro-1H-pyrrol-1-yl)-2-oxoethyl)-3-methylbutanamide]
≥ 6.00 | ≥ 6.00 | CC(C)C(=O)OC(OC(=O)N1CC(c2ccc(O)c(N3CC(=O)NS3(=O)=O)c2F)=C[C@H]1CCC1CCC1)C(C)C (stereo partly drawn) [Compound 150, 1-(isobutyryloxy)-2-methylpropyl (2R)-2-(2-cyclobutylethyl)-4-(3-(1,1-dioxido-4-oxo-1,2,5-thiadiazolidin-2-yl)-2-fluoro-4-hydroxyphenyl)-2,5-dihydro-1H-pyrrole-1-carboxylate]
≥ 6.00 | ≥ 6.00 | CC(C)C(=O)O[C@@H](C)OC(=O)N1CC(c2ccc(O)c(N3CC(=O)NS3(=O)=O)c2F)=C[C@@H]1CCC1CC1 [Compound 151, (R)-1-(isobutyryloxy)ethyl (S)-2-(2-cyclopropylethyl)-4-(3-(1,1-dioxido-4-oxo-1,2,5-thiadiazolidin-2-yl)-2-fluoro-4-hydroxyphenyl)-2,5-dihydro-1H-pyrrole-1-carboxylate]
≥ 6.00 | < 6.00 | CC(C)CC[C@H]1C=C(c2ccc(O)c(N3CC(=O)NS3(=O)=O)c2F)CN1C(=O)O[C@@H](C)OC(=O)C1CCCC1 [Compound 152, (S)-1-((cyclopentanecarbonyl)oxy)ethyl (S)-4-(3-(1,1-dioxido-4-oxo-1,2,5-thiadiazolidin-2-yl)-2-fluoro-4-hydroxyphenyl)-2-isopentyl-2,5-dihydro-1H-pyrrole-1-carboxylate]
< 6.00 | < 6.00 | CC(C)CC[C@H]1C=C(c2ccc(O)c(N3CC(=O)NS3(=O)=O)c2F)CN1C(=O)OC(C)OC(=O)C1CCCC1 (stereo partly drawn) [Compound 153, 1-((cyclopentanecarbonyl)oxy)ethyl (2S)-4-(3-(1,1-dioxido-4-oxo-1,2,5-thiadiazolidin-2-yl)-2-fluoro-4-hydroxyphenyl)-2-isopentyl-2,5-dihydro-1H-pyrrole-1-carboxylate]
≥ 6.00 | ≥ 6.00 | CC(C)CC[C@H]1C=C(c2ccc(O)c(N3CC(=O)NS3(=O)=O)c2F)CN1C(=O)O[C@@H](C)OC(=O)C(C)C [Compound 154, (S)-1-(isobutyryloxy)ethyl (S)-4-(3-(1,1-dioxido-4-oxo-1,2,5-thiadiazolidin-2-yl)-2-fluoro-4-hydroxyphenyl)-2-isopentyl-2,5-dihydro-1H-pyrrole-1-carboxylate]
≥ 6.00 | ≥ 6.00 | CC(C)C(=O)O[C@H](C)OC(=O)N1CC(c2ccc(O)c(N3CC(=O)NS3(=O)=O)c2F)=C[C@@H]1CCC1CC1 [Compound 155, (S)-1-(isobutyryloxy)ethyl (S)-2-(2-cyclopropylethyl)-4-(3-(1,1-dioxido-4-oxo-1,2,5-thiadiazolidin-2-yl)-2-fluoro-4-hydroxyphenyl)-2,5-dihydro-1H-pyrrole-1-carboxylate]
≥ 6.00 | ≥ 6.00 | CC(OC(=O)C(C)C)OC(=O)N1CC(c2ccc(O)c(N3CC(=O)NS3(=O)=O)c2F)=C[C@H]1CCC1CCC1 (stereo partly drawn) [Compound 156, 1-(isobutyryloxy)ethyl (2R)-2-(2-cyclobutylethyl)-4-(3-(1,1-dioxido-4-oxo-1,2,5-thiadiazolidin-2-yl)-2-fluoro-4-hydroxyphenyl)-2,5-dihydro-1H-pyrrole-1-carboxylate]
≥ 6.00 | ≥ 6.00 | CC(OC(=O)[C@@H](N)C(C)C)OC(=O)N1CC(c2ccc(O)c(N3CC(=O)NS3(=O)=O)c2F)=C[C@H]1CCC1CCC1 (stereo partly drawn) [Compound 158, 1-((L-valyl)oxy)ethyl (2R)-2-(2-cyclobutylethyl)-4-(3-(1,1-dioxido-4-oxo-1,2,5-thiadiazolidin-2-yl)-2-fluoro-4-hydroxyphenyl)-2,5-dihydro-1H-pyrrole-1-carboxylate]

Structure (SMILES) | pIC50 (PTP1B) | pIC50 (PTPN2)
CC(=O)OC(OC(=O)N1CC(c2ccc(O)c(N3CC(=O)NS3(=O)=O)c2F)=C[C@H]1CCC1CCC1)C(C)C (stereo partly drawn) [Compound 157, 1-acetoxy-2-methylpropyl (2R)-2-(2-cyclobutylethyl)-4-(3-(1,1-dioxido-4-oxo-1,2,5-thiadiazolidin-2-yl)-2-fluoro-4-hydroxyphenyl)-2,5-dihydro-1H-pyrrole-1-carboxylate] | ≥ 6.00 | ≥ 6.00
